Data: publication PMC7126984 (International Journal of Antimicrobial Agents, 2008)
Values after ≈ are worked out from the molar mass of the structure shown.

Columns and labels:
[1] = MTT cytotoxicity test in HL-CZ cells; details: human, HL-CZ promonocyte cells
[2] = test system: gamma-activated sequence (GAS) promoter; test: Dual-luciferase cis-reporter assay pGAS-Luc in HL-CZ cells; type: cell-based, human; details: 1 μg/mL, 4 h, normalised by Renilla luciferase, vs untreated cells
IFNα expression = test: ELISA for detection of IFNα expression in TE-671 cells; type: cell-based, human; details: 48 h incubation
[3] = MTT cytotoxicity test in TE-671 cells; details: human, TE-671 medulloblastoma cells
[4] = test system: Japanese encephalitis virus (JEV) strain T1P1; test: Plaque reduction assay, JEV in TE-671 cells; details: for TI (ratio of CC50 to IC50): JEV, TE-671 cells; for IC50: Japanese encephalitis virus; for inhibition of JEV replication in cell culture assay: dose-dependent plaque reduction assay
[5] = test system: Japanese encephalitis virus (JEV) strain T1P1; test: Plaque reduction assay, JEV in HL-CZ cells; details: for TI (ratio of CC50 to IC50): JEV, HL-CZ cells; for IC50: Japanese encephalitis virus, 48 h
[6] = test system: nitric oxide (NO) production; test: NO production by DAF-2 DA fluorescence in HL-CZ cells; type: cell-based, human; details: compared with the control and shikonin
[7] = test system: 2′,5′-oligoadenylate synthetase (OAS) mRNA; test: Real-time RT-PCR of OAS mRNA in HL-CZ cells; type: cell-based, human; details: 1 μg/mL, normalised to GAPDH, vs untreated cells
rhinovirus = details: cited from earlier work
[8] = test system: human protein kinase R (PKR) mRNA; test: Real-time RT-PCR of PKR mRNA in HL-CZ cells; type: cell-based; details: 1 μg/mL, normalised to GAPDH, vs untreated cells
enterovirus 71 (EV71) [9] = test: Plaque reduction assay, EV71 in TE-671 cells; details: for IC50: Enterovirus A
[10] = test system: interferon-stimulated response element (ISRE) promoter; test: Dual-luciferase cis-reporter assay pISRE-Luc in HL-CZ cells; type: cell-based, human; details: 1 μg/mL, 4 h, normalised by Renilla luciferase, vs untreated cells
enterovirus 71 (EV71) [11] = test: Plaque reduction assay, EV71 in HL-CZ cells
[12] = test system: TE-671 medulloblastoma cells; test: MTT cytotoxicity test in TE-671 cells; details: TE-671 cells, 48 h treatment, MTT assay
[13] = 1 μg/mL, TE-671 and HL-CZ cells, 12, 24 and 48 h

SMILES | CC50 at 48 h [1] [µg/mL] | increase of promoter activity of pGAS-Luc [2] [fold] | level of IFNα expression, dose dependence (IFNα expression) | CC50 at 48 h [3] [µg/mL] | TI (ratio of CC50 to IC50) [4] | IC50 ([4]; TE-671, 48 h) [µg/mL] | inhibition of JEV replication in cell culture assay [4] | TI (ratio of CC50 to IC50) [5] | IC50 [5] [µg/mL] | NO production (DAF signal) [6] | increase of OAS mRNA [7] [fold] | increase of PKR mRNA [8] [fold] | increase of promoter activity of pISRE-Luc [10] | further results
COC(=O)C1=CCCN(C)C1 [Arecoline, arecoline] | > 3000 | 1.8 | dose-dependent increase | > 3000 | >92.3 | 32.5 ± 0.4 (≈ 209 µM) | dose-dependent inhibition | >285.7 | 10.5 ± 0.3 (≈ 67.7 µM) | greater DAF signal |  |  |  | 
O=C1c2cccc(O)c2C(=O)c2c(O)cc(CO)cc21 [Aloe-emodin, 1,8-dihydroxy-3-hydroxymethyl-anthraquinone] | 2880 (≈ 10700 µM) | ~2.03 | dose-dependent increase | 2630 (≈ 9740 µM) | 1743 | 1.51 ± 0.05 (≈ 5.59 µM) | dose-dependent inhibition | 5762 | 0.5 ± 0.02 (≈ 1.85 µM) | greater DAF signal | 8.6 | 1294.4 | ca. 2.14 fold | antiviral effect on the replication of rhinovirus (rhinovirus): no antiviral effect; increase in IFNα expression (IFNα expression): 2.5 fold; time-dependent inhibition of JEV replication [4, 13]: significantly inhibited; IC50 ([4]; TE-671, read-out: IC50 for JEV): 0.5 to 1.51 µg/mL (≈ 1.85 to 5.59 µM); therapeutic index (TI) for anti-JEV activity ([4]; over TE-671 and HL-CZ cells): > 1500; time-dependent inhibition of EV71 replication (enterovirus 71 (EV71) [9]; [13]): significantly inhibited; TI (ratio of CC50 to IC50) (enterovirus 71 (EV71) [9]; EV71, TE-671 cells): 18 800; IC50 (enterovirus 71 (EV71) [9]; EV71, TE-671, 48 h): 0.14 ± 0.04 µg/mL (≈ 0.518 µM); IC50 (enterovirus 71 (EV71) [9]; EV71, TE-671, read-out: IC50 for EV71): 0.14 to 0.52 µg/mL (≈ 0.518 to 1.92 µM); therapeutic index (TI) for anti-EV71 activity (enterovirus 71 (EV71) [9]; over TE-671 and HL-CZ cells): > 5000; TI (ratio of CC50 to IC50) (enterovirus 71 (EV71) [11]; EV71, HL-CZ cells): 5540; IC50 (enterovirus 71 (EV71) [11]; Enterovirus A, EV71, 48 h): 0.52 ± 0.03 µg/mL (≈ 1.92 µM)
COc1ccc([C@@H]2CC(=O)c3c(O)cc(O)cc3O2)cc1O [Hesperetin, hesperetin] |  |  |  | 574 (≈ 1900 µM) | 159 | 3.6 ± 0.5 (≈ 11.9 µM) |  |  |  |  |  |  |  | 
CC(C)=CC[C@@H](O)C1=CC(=O)c2c(O)ccc(O)c2C1=O [Shikonin, shikonin] | > 3000 |  | dose-dependent increase | 1750 (≈ 6080 µM) | 835.2 | 2.1 ± 0.5 (≈ 7.28 µM) | dose-dependent inhibition | >2500 | 1.2 ± 0.2 (≈ 4.16 µM) |  | 5 | 1087 | ca. 1.2 fold | 
O.Oc1cc(O)c2c(c1)O[C@H](c1ccc(O)c(O)c1)[C@@H](O)C2 [Catechin, catechin] |  |  |  |  |  |  |  |  |  |  |  |  |  | CC50 [12]: >3000 µg/mL
